# Patent US4130709A, “Pleuromutilin glycoside derivatives” (Eli Lilly and Company, priority 1977, dated 1978)
# Key:
# Format in all cases: cell-based
# [1] = system: Staphylococcus aureus (H-Heatley) NRRL B-314; test: in vitro turbidometric assay (Autoturb Microbiological Assay System) against Staphylococcus aureus; conditions: nutrient broth pH 7, approximately 4 hours at 37° C., A-40104 factor A as standard
# Method: The compounds are conveniently tested against a typical gram-positive organism, Staphylococcus aureus, using a turbidometric assay on a semi-automated system (Autoturb Microbiological Assay System, Elanco) described by N. R. Kuzel and F. W. Kavanagh in J. Pharmaceut. Sci, 60 (5), 764 and 767 (1971). In testing these compounds, the following parameters were used: Staphylococcus aureus (H-Heatley) NRRL B-314 in a nutrient broth medium (pH 7), incubated for approximately 4 hours at 37° C. Test samples and A-40104 factor A, which is used as a standard, were dissolved in water. The standard was presented to the Autoturb carrousel at concentrations of 1.25, 2.50, 3.75, 5.00 and 6.25 mcg/ml. Test compounds were diluted to contain approximately 2.5 to 5.0 mcg of activity per ml, as presented to the carrousel. The units of activity of some of the typical compounds of this invention (R^2 =H in group tested) in this in vitro assay are summarized in Table I
# [2] = system: Mycoplasma gallisepticum; test: in vitro broth-dilution studies, mycoplasma; conditions: Mycoplasmoides gallisepticum
# Excerpt: (§1) The minimal inhibitory concentrations (MIC's) of a number of typical compounds of the present invention (R^2 =H in group tested) against various mycoplasma species, as determined by in vitro broth-dilution studies, are summarized in Table V.
# [3] = system: Mycoplasma hyorhinis; test: in vitro broth-dilution studies, mycoplasma
# Excerpt: as §1
# [4] = system: Mycoplasma synoviae; test: in vitro broth-dilution studies, mycoplasma; conditions: Mycoplasmopsis synoviae
# Excerpt: as §1
# [5] = system: Spiroplasma citri; test: in vitro inhibition of Spiroplasma citri measured by a color reaction; parameters: key to Activity (color reaction): Red (R) includes complete inhibition; red-orange (RO) indicates partial inhibition; yellow (Y) indicates no inhibition
# Method: In another important aspect, the compounds of this invention are active against Spiroplasmas. Spiroplasma citri is the causative agent of citrus-stubborn disease; another Spiroplasma, corn-stunt Spiroplasma, affects the growth of corn. Table VII summarizes the in vitro activity of representative compounds of the present invention (R^2 =H in this group) against Spiroplasma citri. In this test, inhibition of S. citri is measured by a color reaction. Red (R) includes complete inhibition; red-orange (RO) indicates partial inhibition; and yellow (Y) indicates no inhibition.
SMILES,Units of Activity [1],MIC [2],MIC [3],MIC [4],Activity (color reaction) ([5]; 1.0 ppm),Activity (color reaction) ([5]; 0.1 ppm)
"C=C[C@]1(C)C[C@@H](OC(=O)CO[C@@H]2O[C@H](COC(C)=O)[C@@H](OC(C)=O)[C@H](OC(C)=O)[C@H]2OC(C)=O)[C@]2(C)[C@H](C)CC[C@]3(CCC(=O)[C@H]32)[C@@H](C)[C@@H]1O [Example 3, 14-deoxy-14-[(2,3,4,6-tetra-O-acetyl-β-D-glucopyranosyl)oxyacetoxy]mutilin]",75 to 85 µg/mg,0.78 µg/mL,0.78 µg/mL,0.78 µg/mL,R,
"C=C[C@]1(C)C[C@@H](OC(=O)CO[C@@H]2O[C@H](CO)[C@@H](O)[C@H](O)[C@H]2O)[C@]2(C)[C@H](C)CC[C@]3(CCC(=O)[C@H]32)[C@@H](C)[C@@H]1O [Example 4, 14-deoxy-14-[(β-D-glucopyranosyl)oxyacetoxy]-mutilin]",12 to 13 µg/mg,0.39 µg/mL,0.78 µg/mL,0.78 µg/mL,R,Y
"C=C[C@]1(C)C[C@@H](OC(=O)CS[C@H]2O[C@H](COC(C)=O)[C@@H](OC(C)=O)[C@H]2OC(C)=O)[C@]2(C)[C@H](C)CC[C@]3(CCC(=O)[C@H]32)[C@@H](C)[C@@H]1O [Example 41 α-anomer, 14-deoxy-14-[(2,3,5-tri-O-acetyl-α-D-ribofuranosyl)thioacetoxy]mutilin]",about 200 mcg/mg,,,,,
"C=C[C@]1(C)C[C@@H](OC(=O)CS[C@@H]2O[C@H](COC(C)=O)[C@@H](OC(C)=O)[C@H]2OC(C)=O)[C@]2(C)[C@H](C)CC[C@]3(CCC(=O)[C@H]32)[C@@H](C)[C@@H]1O [Example 41 β-anomer, 14-deoxy-14-[(2,3,5-tri-O-acetyl-β-D-ribofuranosyl)thioacetoxy]mutilin]",about 450 mcg/mg,,,,,
"C=C[C@]1(C)C[C@@H](OC(=O)CS[C@@H]2O[C@H](COC(C)=O)[C@@H](O[C@H]3O[C@H](COC(C)=O)[C@@H](OC(C)=O)[C@H](OC(C)=O)[C@H]3OC(C)=O)[C@H](OC(C)=O)[C@H]2OC(C)=O)[C@]2(C)[C@H](C)CC[C@]3(CCC(=O)[C@H]32)[C@@H](C)[C@@H]1O [Example 52, 14-Deoxy-14-[(4-O-(2,3,4,6-tetra-O-acetyl-α-D-glucopyranosyl)-2,3,6-tri-O-acetyl-β-D-glucopyranosyl)thioacetoxy]mutilin]",40 µg/mg,,,,,
CC[C@]1(C)C[C@@H](OC(=O)CS[C@@H]2O[C@H](COC(C)=O)[C@@H](O[C@H]3O[C@H](COC(C)=O)[C@@H](OC(C)=O)[C@H](OC(C)=O)[C@H]3OC(C)=O)[C@H](OC(C)=O)[C@H]2OC(C)=O)[C@]2(C)[C@H](C)CC[C@]3(CCC(=O)[C@H]32)[C@@H](C)[C@@H]1O [Example 53],28 µg/mg,,,,,
